Laboratory results: US20110257242A1, “3-PHENYL-3-METHOXYPYRROLIDINE DERIVATIVES AS MODULATORS OF CORTICAL CATECHOLAMINERGIC NEUROTRANSMISSION” (NSAB, FILIAL AF NEUROSEARCH SWEDEN AB, SVERIGE, priority 2008, published 2011)

Test system: MK-801 pre-treated rats
Assay: Locomotor activity in MK-801 pre-treated rats (antipsychotic activity model)
Conditions: MK-801 0.7 mg/kg i.p., no test compound, recorded between 30 and 60 minutes

Compound: C[C@]12N[C@H](Cc3ccccc31)c1ccccc12 [MK-801]
- Locomotor activity, MK-801 alone: 48068 counts/30 min
